Entries after “also recorded” stand apart in the source; their conditions may differ. Like-named read-outs stand apart in the source and are kept apart here.
Tests used:
[1] = tested on: Primary human AEC2s; test: AEC2 proliferation assay (Ki67 high content imaging); assay type: cell-based
Description: To identify small molecules capable of proliferating AEC2s, as disclosed herein, we first established a culture system with primary human small airway epithelial cells (SAECs) from a commercial source.
AEC2 proliferation assay. Primary human AEC2s were plated at a density of 1,500 cells per well in black 384-well plates (Greiner) coated with 10 ug/mL. Laminin (Life Technologies) in 50 μL of Small Airway Epithelial Cell Growth Medium (Lonza) without EGF, retinoic acid and with 5% BPE. 100 nL of compound dissolved in DMSO was then delivered using a Biomek FX instrument (Beckman Coulter) fitted with a pintool head (V&P Scientific).

[2] = tested on: alveolar epithelium; settings: Stone et al., Diab et al.; cited from earlier work
[3] = target: Human DPP4 (Homo sapiens (Human), UniProt P27487); test: DPP4 activity assay (Sigma-Aldrich MAK088 kit); assay type: biochemical; settings: Table 4; read-out: DPPIV IC50
Chain of Human DPP4 (P27487 whole entry): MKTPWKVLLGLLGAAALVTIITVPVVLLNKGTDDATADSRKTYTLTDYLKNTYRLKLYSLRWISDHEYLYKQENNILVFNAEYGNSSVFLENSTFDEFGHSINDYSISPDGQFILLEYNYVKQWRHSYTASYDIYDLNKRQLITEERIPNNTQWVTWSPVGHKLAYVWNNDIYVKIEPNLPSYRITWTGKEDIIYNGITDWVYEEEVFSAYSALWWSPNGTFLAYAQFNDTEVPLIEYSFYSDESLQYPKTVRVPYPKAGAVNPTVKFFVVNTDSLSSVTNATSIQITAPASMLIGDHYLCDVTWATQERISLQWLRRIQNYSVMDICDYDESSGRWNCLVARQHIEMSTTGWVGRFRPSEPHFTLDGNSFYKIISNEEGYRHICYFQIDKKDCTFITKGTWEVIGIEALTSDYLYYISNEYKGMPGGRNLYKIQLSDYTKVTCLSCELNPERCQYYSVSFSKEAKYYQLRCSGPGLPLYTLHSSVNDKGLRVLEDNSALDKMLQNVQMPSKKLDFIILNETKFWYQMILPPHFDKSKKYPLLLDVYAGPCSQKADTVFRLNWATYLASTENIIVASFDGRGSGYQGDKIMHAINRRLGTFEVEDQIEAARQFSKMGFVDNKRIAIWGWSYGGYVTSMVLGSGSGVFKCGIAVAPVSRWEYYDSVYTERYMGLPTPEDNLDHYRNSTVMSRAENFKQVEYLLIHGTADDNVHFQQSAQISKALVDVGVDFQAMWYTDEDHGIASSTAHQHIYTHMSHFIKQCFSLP
Description: DPP4 activity assay. Human DPP4 activity assay data were obtained using a DPP4 Activity Assay Kit (Sigma-Aldrich, MAK088) according to the manufacturer's instructions. Briefly, 10 μL of DPP4 Assay Buffer was transferred per well in low volume 384-well plates before transferring 10 μL of diluted compound dissolved in DPP4 assay buffer. 5 μL of Master Reaction Mix containing a fluorescent substrate that becomes fluorescent upon cleavage by the enzyme. Fluorescence intensity measurements were recorded at 1-minute time intervals over the course of 20 minutes using an Envision Multimode Plate Reader (PerkinElmer).

[4] = tested on: bleomycin-induced lung fibrosis; test: Bleomycin-induced lung fibrosis model; assay type: in vivo, mouse; settings: 0.5 mg/kg IT once every four days, versus vehicle
Description: Experimental Methods of Bleomycin Model Bleomycin (Hospira) was used to induce lung fibrosis in mice. Body weight matched (24 gram˜28 gram) male C57BL/6J mice at 10-12 weeks of age were selected to use in bleomycin model. For orally delivered DPP4 inhibitors. compounds were dissolved in PBS resulting in clear solution. […] For intratracheally delivered DPP4 inhibitors, compounds were dissolved in PBS resulting in clear solution. […] 0.5 U/kg Bleomycin or PBS in sham group was intratracheally injection into mice lung at day 0. […] All animals were sacrificed at day 20 after bleomycin injection. Bronchoalveolar lavage fluid (BALF) was retrieved using standard method. 1 ml 4% formalin was used to inflate the lung, which was subsequently fixed in 4% formalin for 24 hours and preserved in 70% EtOH until histological process. For readouts, body weight was measured every day; total protein content in BALF was quantified using BCA assay; pulmonary fibrosis was assessed using Masson's trichrome staining.

[5] = IT pharmacokinetics of dutogliptin (1) and dutogliptin boronate (15); assay type: in vivo, mouse; settings: for Plasma concentration of dutogliptin, individual animals / Bronchoalveolar lavage fluids concentration of dutogliptin, individual animals / Lung concentration of dutogliptin, individual animals: mice, 1.8 mg/kg IT dutogliptin boronate (cpd 15)
Description: Like other […]. Dutogliptin (1) dosed IT in mice with PBS solution quickly cleared in lung (<24h. Table 8A). […] The parent drug dutogliptin was detected in plasma and lung. […] The drug was retained in the lung for over 48 h. The data clearly illustrated the unexpected lung retention ability of boronate prodrug 15.

[6] = tested on: human pulmonary fibroblasts; test: Pulmonary fibroblast counter-assay; assay type: cell-based; settings: at concentrations that promoted AEC2 proliferation
[7] = Homo sapiens, Table 4, promotion of AEC2 proliferation, read-out: AEC2 EC50
[8] = Homo sapiens, Table 5, read-out: AEC2 proliferation

For `CCCCCCCCc1ccc(CCC(N)(CO)CO)cc1` [FTY-720], the “AEC2 proliferation, result in words” value [1] is given as “active” and the “apoptosis and inflammatory cytokine release in alveolar epithelium” value [2] is given as “inhibited apoptosis and inflammatory cytokine release”.
For `N#C[C@@H]1CCCN1C(=O)CNC12CC3C[C@H](CC(N)(C3)C1)C2` [Cpd 18, (2S)-1-(((1S,3R,5R)-3-aminoadamantan-1-yl)glycyl)pyrrolidine-2-carbonitrile], the IC50 [3] was 38 nM.
Work on `Cc1cc2ncc(C(=O)NCC(C)(C)NCC(=O)N3CCC[C@H]3C#N)cn2n1` [Cpd 12, (S)-N-(2-((2-(2-cyanopyrrolidin-1-yl)-2-oxoethyl)amino)-2-methylpropyl)-2-methylpyrazolo[1,5-a]pyrimidine-6-carboxamide] yielded an EC50 [1, 7] of 110 nM and an EC50 [1, 8] of 110 nM.
For `CC(C)Oc1ccc(-c2nc(-c3cccc4c3CC[C@@H]4NCCO)no2)cc1C#N` [Ozanimod], the “AEC2 proliferation, result in words” value [1] was “active”.
`N#C[C@@H]1C[C@H](F)CN1C(=O)CNC12CCC(C(=O)O)(CC1)CC2` [Cpd 16, 4-((2-((2S,4S)-2-cyano-4-fluoropyrrolidin-1-yl)-2-oxoethyl)amino)bicyclo[2.2.2]octane-1-carboxylic acid] gave an IC50 [3] of 1.2 nM.
Compound `N[C@@H](CC(=O)N1CCc2c(nc(C(F)(F)F)nc2C(F)(F)F)C1)CN1CC(F)(F)CCC1=O` [Cpd 11, (S)-1-(2-amino-4-(2,4-bis(trifluoromethyl)-5,8-dihydropyrido[3,4-d]pyrimidin-7(6H)-yl)-4-oxobutyl)-5,5-difluoropiperidin-2-one] has an EC50 [1, 7] of 220 nM and an EC50 [1, 8] of 220 nM.
In the case of `N#C[C@@H]1CCCN1C(=O)CNC12CC3C[C@@H](C1)C[C@@](O)(C3)C2` [Cpd 3, (2S)-1-(((1S,3R,5S)-3-hydroxyadamantan-1-yl)glycyl)pyrrolidine-2-carbonitrile], the EC50 [1, 7] is reported as 160 nM and the EC50 [1, 8] is reported as 160 nM.
`N[C@@H](CC(=O)N1CCn2c(C(F)(F)F)nc(C(=O)O)c2C1)Cc1cc(F)c(F)cc1F` [Cpd 26, (R)-7-(3-amino-4-(2,4,5-trifluorophenyl)butanoyl)-3-(trifluoromethyl)-5,6,7,8-tetrahydroimidazo[1,5-a]pyrazine-1-carboxylic acid] gave an IC50 [3] of 0.8 nM.
`CCOC(=O)C12CCC(NCC(=O)N3C[C@@H](F)C[C@H]3C#N)(CC1)CC2` [Cpd 2, ethyl 4-((2-((2S,4S)-2-cyano-4-fluoropyrrolidin-1-yl)-2-oxoethyl)amino)bicyclo[2.2.2]octane-1-carboxylate] showed an IC50 [3] of 2.2 nM.
Work on `Cn1c(=O)cc(N2CCC[C@@H](N)C2)n(Cc2cc(F)ccc2C#N)c1=O` [Cpd 10, (R)-2-((6-(3-aminopiperidin-1-yl)-3-methyl-2,4-dioxo-3,4-dihydropyrimidin-1(2H)-yl)methyl)-4-fluorobenzonitrile] yielded an EC50 [1, 7] of 67 nM and an EC50 [1, 8] of 67 nM.
With `CC1(C)[C@@H]2C[C@H]3OB([C@@H]4CCCN4C(=O)CN[C@@H]4CCNC4)O[C@@]3(C)[C@H]1C2` [Cpd 15, 2-(((R)-pyrrolidin-3-yl)amino)-1-((R)-2-((3aS,4S,6S,7aR)-3a,5,5-trimethylhexahydro-4,6-methanobenzo[d][1,3,2]dioxaborol-2-yl)pyrrolidin-1-yl)ethan-1-one] the BALF protein level [4] was “reduced”, the “plasma and lung levels of the boronate itself” value ([5]; IT dosing, data not shown) was “very low and absent after 0.25 h” and the “Plasma concentration of dutogliptin, individual animals” value (shortened to “Plasma concentration of dutogliptin”) ([5]; 7.00 h) was “BQL”. For the same compound, the “Plasma concentration of dutogliptin” value ([5]; 24.0 h) was “BQL”, the “Bronchoalveolar lavage fluids concentration of dutogliptin, individual animals” value ([5]; 48.0 h) was “BQL” and the “Lung concentration of dutogliptin, individual animals” value (shortened to “Lung concentration of dutogliptin”) ([5]; 48.0 h) was “BQL”. The “Plasma concentration of dutogliptin” value ([5]; 48.0 h) was “BQL”, the “Bronchoalveolar lavage fluids concentration of dutogliptin, individual animals” value ([5]; 96.0 h) was “BQL” and the “Lung concentration of dutogliptin” value ([5]; 96.0 h) was “BQL”. The “Plasma concentration of dutogliptin” value ([5]; 96.0 h) was “BQL”, the “Bronchoalveolar lavage fluids concentration of dutogliptin, individual animals” value ([5]; 168 h) was “BQL” and the “Lung concentration of dutogliptin” value ([5]; 168 h) was “BQL”. For the same compound, the “Plasma concentration of dutogliptin” value ([5]; 168 h) was “BQL”, the “conversion of the boronate to the active drug” value ([5]; mouse IT pharmacokinetic study) was “convert to the active drug dutogliptin in both plasma and lung” and the “lung exposure of dutogliptin after IT boronate versus IT dutogliptin itself” value ([5]; mouse, in vivo) was “significantly higher; also recorded: much higher”.
Compound `CC#CCn1c(N2CCC[C@@H](N)C2)cc(=O)n(Cc2cccc(C(=O)OC)c2)c1=O` [Cpd 25, methyl (R)-3-((4-(3-aminopiperidin-1-yl)-3-(but-2-yn-1-yl)-2,6-dioxo-3,6-dihydropyrimidin-1(2H)-yl)methyl)benzoate] has an IC50 [3] of 6 nM.
Work on `COC(=O)C12CCC(NCC(=O)N3C[C@@H](F)C[C@H]3C#N)(CC1)CC2` [Cpd 17, methyl 4-((2-((2S,4S)-2-cyano-4-fluoropyrrolidin-1-yl)-2-oxoethyl)amino)bicyclo[2.2.2]octane-1-carboxylate] yielded an IC50 [3] of 1 nM.
For `FC(F)(F)c1cccc(-c2noc(-c3cc(-c4ccccc4)c(C(F)(F)F)s3)n2)c1` [SEW-2871], the “AEC2 proliferation, result in words” value [1] is listed as “active” and the “apoptosis and inflammatory cytokine release in alveolar epithelium” value [2] is listed as “inhibited apoptosis and inflammatory cytokine release”.
`Cn1c(=O)cc(N2CCC[C@@H](N)C2)n(Cc2ccccc2C#N)c1=O` [Cpd 7, (R)-2-((6-(3-aminopiperidin-1-yl)-3-methyl-2,4-dioxo-3,4-dihydropyrimidin-1(2H)-yl)methyl)benzonitrile] showed an EC50 [1, 7] of 110 nM and an EC50 [1, 8] of 110 nM.
With `CS(=O)(=O)n1cc2c(n1)CN([C@H]1CO[C@H](c3cc(F)ccc3F)[C@@H](N)C1)C2` [Cpd 9, (2R,3S,5R)-2-(2,5-difluorophenyl)-5-(2-(methylsulfonyl)-2,6-dihydropyrrolo[3,4-c]pyrazol-5(4H)-yl)tetrahydro-2H-pyran-3-amine] the EC50 [1, 7] was 43 nM and the EC50 [1, 8] was 43 nM.
In the case of `N#Cc1ccc(NCCNCC(=O)N2CCC[C@H]2C#N)nc1` [NVP-728], the EC50 ([1]; FIG. 1B, 1C, read-out: EC50, AEC2 proliferation (ReFRAME screen hits)) is reported as roughly 500 nM and the “total number, percent Ki67 positivity, or myofibroblast differentiation status of pulmonary fibroblasts” value [6] is reported as “did not increase”.
For `CCc1cc(/C(C)=N/OCc2ccc(C3CCCCC3)c(C(F)(F)F)c2)ccc1CN1CC(C(=O)O)C1` [siponimod], the EC50 ([1]; Homo sapiens, FIG. 1B, 1C, read-out: EC50, AEC2 proliferation (ReFRAME screen hits)) was roughly 100 nM and the “total number, percent Ki67 positivity, or myofibroblast differentiation status of pulmonary fibroblasts” value [6] was “did not increase”.
